Data set [1] has as its system rheumatoid synovial fibroblasts (RSF). Conditions: concentrations of 10–150 μM; IL-1 or IL-8 stimulated; cited from earlier work.
The next data set has as its system PKC. The note with it: read-out: IC50 PKC inhibitory activity; cited from earlier work.
For a further data set, the system named is experimental OA. The note with it: sustained systemic delivery; cited from earlier work.
The next data set deals with NFκB activation. Conditions: IL-1-stimulated RSF; cited from earlier work.
The subject of another data set is paw inflammation. Conditions: dose of 50 mg/kg; cited from earlier work.
The subject of data set [2] is adjuvant-induced arthritis. Conditions: p.o. at 30 and 60 mg/kg/day; cited from earlier work.
In data set [3] the test system is prostaglandin E2 production in synovial cultures. In words: PGE2 formation in cultured human synovial fibroblasts during overnight IL-1 priming. Format: cell-based. Conditions: Fibroblast, co-incubation with IL-1 (10 U/ml), 16 hr, mean±SEM. Here is the method: (§1) 1. Cell Culture. […] Experiments were performed on cells from passages 3–8. […] The growth medium was replaced twice weekly.
2. Experimental Treatments.
3. Measurement of Prostaglandin E2. […] Samples were stored at −80° until processing.
1. Data analysis. Immunoassays were routinely performed in duplicate aliquots from each culture. Experimental determinations were performed on duplicate or triplicate cultures. Each experiment was repeated in at least two cell lines. Nonlinear regression curve fitting and statistical analyses were performed using Graph-PAD Prism software (San Diego, Calif.).
The actions of ketoprofen, a cyclooxygenase inhibitor, to attenuate PGE2 formation were determined by co-incubation with IL-1 during prolonged exposure (16 hr); and by brief pre-incubation prior to a subsequent GPCR agonist challenge interval, as shown in FIG. 8.

For data set [4] the test system is unchanged. Conditions: histamine 100 μM or bradykinin 1 μM; overnight IL-1 (10 U/ml) priming.
Protocol: Cell Culture. Synovial tissue was obtained from osteoarthritis patients undergoing joint replacement surgery through the Clinical Research Center, MacNeal Hospital, and transported to the laboratory in Dulbecco's Modified Eagle's Medium (DMEM) containing penicillin (100 units/ml), streptomycin (100 μg/ml), and fungizone (0.25 μg/ml). The synovium was dissected and minced with scissors, and plated as explants in culture medium composed of DMEM containing L-glutamine (2 mM), heat inactivated fetal bovine serum (10% v/v), plus antibiotics. Cultures were housed at 37° C. in a humidified atmosphere of 5% CO2. Adherent synovial cells grew out of the explants within 2–3 weeks, and were passaged by trypsinization. Seed cultures were fed twice weekly and were passaged at confluency. Experiments were performed on cells from passages 3–8. Experimental cultures were plated into 35 mm dishes at a density of 7.5×10^3 cells/cm^2 in 2 ml culture medium. […]
Measurement of Prostaglandin E2. […] Aliquots of culture supernatant were analyzed by competitive binding radioimmunoassay as specified by the manufacturer (Sigma Chemical Co.), using an antibody with equivalent reactivity toward prostaglandins E2 and E1. For quantitation, a standard curve was prepared with each assay using fixed concentrations of [^3H]prostaglandin E2, and increasing concentrations of authentic competing prostaglandin E2.
The subject of data set [5] is IL-8 production by synoviocyte cultures. In words: IL-8 production by synoviocyte cultures in response to IL-1. Type of data set: cell-based, human. The method, then:
as §1
The kinetics of induction of interleukin-6 in response to stimulation with IL-1 are described. Synoviocyte cultures were exposed to the indicated treatments with IL-1 plus either histamine to activate signaling through inositol trisphosphate (InsP3)/protein kinase C pathway or isproterenol to activate increases in intracellular cAMP. Production of PGE2, IL-6, and IL-8 were measured in the culture supernatants following 1, 2, 4, 6, and 24 hr treatments. In this experiment, each treatment interval was performed in a separate culture. […] IL-1 also produced a significant elevation of IL-8 (2000 pg/ml), which was first measurable at 6 hr of treatment.
The effect of ketoprofen on the induction of cytokine production by IL-1 and GPCR agonists was examined. The protocol also tested the effects of IL-1 concentration dependence on the IL-6 steady state induction. Synoviocyte cultures were exposed to indicated concentrations of IL-1 and GPCR agonists. Culture supernatants were collected and replaced with fresh media aliquots containing the same agonist additions at 8-hr intervals. PGE2, IL-6, and IL-8 in the supernatants were assayed as described.

Data set [6] relates to IL-6 production by synovial cultures. In words: IL-6 production by synovial cultures stimulated with IL-1 plus GPCR ligands. Type of data set: cell-based, human. Conditions: 0.75 μM ketoprofen. The method, then: FIG. 9 is a graphical representation of the effect of ketoprofen on IL-6 production by synovial cultures at 16 hours in the presence of the indicated concentrations of IL-1 plus the added G-protein coupled receptor ligands. Cultures were incubated for 16 hours with IL-1 at the indicated concentration (0.3, 1.0 and 3.0 pg/ml) in the absence and presence of 0.75 μM ketoprofen in experimental growth medium with one of the following additional receptor ligands: 1) isoproterenol (ISO) at 1.0 μM to activate the camp pathway, or 2) histamine (HIS) at 100 μM to activate the IP3/calcium pathway. Culture supernatants were collected and replaced with fresh media aliquots containing the same agonist additions at 8 hour intervals. Following treatment, the supernatant medium corresponding to the treatment interval from 8 to 16 hours was collected and analyzed for IL-6.
as §1
4. Measurement of IL-6. Production of the cytokine, IL-6, was also measured in aliquots of supernatant culture media which had been stored frozen at −80° C. IL-6 was measured by sandwich ELISA with alkaline phosphatase detection as described by the manufacturer (Pharmingen) and quantitated using standard curves prepared with the respective pure recombinant human cytokines. […]

For data set [7] the following is noted: in vivo, cited from earlier work.
Data set [8] has as its target T1, Type I IL-1R (Homo sapiens, UniProt P14778).
T1 sequence (P14778 18-569): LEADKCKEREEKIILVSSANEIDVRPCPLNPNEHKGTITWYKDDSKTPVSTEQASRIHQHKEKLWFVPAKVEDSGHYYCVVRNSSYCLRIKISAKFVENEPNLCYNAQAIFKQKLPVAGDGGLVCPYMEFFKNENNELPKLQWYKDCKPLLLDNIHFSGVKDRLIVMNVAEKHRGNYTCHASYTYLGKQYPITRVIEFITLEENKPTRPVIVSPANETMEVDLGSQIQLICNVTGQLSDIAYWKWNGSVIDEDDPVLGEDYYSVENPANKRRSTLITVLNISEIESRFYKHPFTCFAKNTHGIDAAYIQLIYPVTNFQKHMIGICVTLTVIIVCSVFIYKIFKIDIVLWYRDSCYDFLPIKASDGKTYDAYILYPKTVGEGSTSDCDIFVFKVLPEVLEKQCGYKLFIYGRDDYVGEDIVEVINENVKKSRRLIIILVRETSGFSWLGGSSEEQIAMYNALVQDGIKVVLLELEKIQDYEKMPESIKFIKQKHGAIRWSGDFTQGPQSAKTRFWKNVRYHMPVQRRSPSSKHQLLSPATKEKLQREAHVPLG
The note with it: in vitro efficacy; cited from earlier work.

A further data set addresses BMP-4 receptors. Conditions: 125I-BMP-4; read-out: apparent dissociation constant; cited from earlier work.
The target of data set [9] is T1, Type I IL-1R. The note with it: cells that express the Type I IL-1R; cited from earlier work.

Turning to `c1cnc2c(c1)ccc1cccnc12` [1,10-o-phenanthroline], the “effect on penetration of cartilage by RSF cells” value in [1] is recorded as “substantially inhibited”. As for `Cn1c2ccccc2c2c3c(c4c5ccccc5n(CCC#N)c4c21)CNC3=O` [G-6203], in the data set with PKC, the IC50 – broadly, the concentration needed to halve the response being measured – was 2000 to 10000 nM. Consider `CC(=N)NCCCC[C@H](N)C(=O)O` [L-NIL], for which, in the data set with experimental OA, the “effect on progression of experimental OA” value is recorded as “reduces the progression of experimental OA”. As for `CN(C)C[C@H]1CCn2c(c(C3=C(c4cn(C)c5ccccc45)C(=O)NC3=O)c3ccccc32)C1` [RO 32-0432], the “activity on PGE2 production” value with NFκB activation is “inactive”. As to `C[S+]([O-])c1ccc(-c2nc(-c3ccc(F)cc3)c(-c3ccncc3)[nH]2)cc1` (stereo not shown) [SB203580, 4-(4-fluorophenyl)-2-(4-methylsulfinylphenyl)-5-(4-pyridyl)imidazole], the “effect on paw inflammation” value with paw inflammation is recorded as “significant inhibition of paw inflammation”. For the same compound, in [2], the antiarthritic activity entry was “Antiarthritic activity”. `O=C1CCNC(=O)c2[nH]ccc21` [aldisine]: the “activity on PGE2 production” value with NFκB activation is “inactive”.

`CCc1cccc2c3c([nH]c12)C(CC)(CC(=O)O)OCC3` (stereo not shown) [etodolac]: the IC50 in data set [3] is 15.2 ± 4.6 nM. As to `NCCc1c[nH]cn1` [histamine], the “fold increase in PGE2 production compared to IL-1 primed cells receiving no GPCR agonist” value in [4] is recorded as 5–10 fold.

With `COc1ccc2c(c1)c(CC(=O)O)c(C)n2C(=O)c1ccc(Cl)cc1` [indomethacin], in data set [3], the 50% inhibitory concentration (IC50) is 3.2 ± 1.5 nM.

Take `CC(C(=O)O)c1cccc(C(=O)c2ccccc2)c1` (stereo not shown) [ketoprofen]: the “effect on IL-8 production in response to IL-1” value in data set [5] is “reduces”. Moreover, the IC50 in data set [3] came to 4.5 ± 0.8 nM. Also, the “effect on IL-6 production in histamine or isoproterenol/IL-1 co-stimulated samples” value in [6] (histamine 100 μM or isoproterenol 1.0 μM plus IL-1) was “inhibited”. Also, in data set [6] (Homo sapiens, 1.0 pg/ml IL-1, 16 hr, read-out: inhibition of IL-1-elicited IL-6 production), the inhibition – broadly, the share of the control response that was lost under treatment – at 0.75 µM was no more than 50%. As to `O=C(c1ccccc1)c1ccc2n1CCC2C(=O)O` (stereo not shown) [ketorolac], the IC50 in [3] amounted to 2.2 ± 0.4 nM. On to `CC(C)C[C@H](NP(=O)(O)O[C@@H]1O[C@@H](C)[C@H](O)[C@@H](O)[C@H]1O)C(=O)N[C@@H](Cc1c[nH]c2ccccc12)C(=O)O` [phosphoramidon], for which the “effect on penetration of cartilage by RSF cells” value in data set [1] is recorded as “substantially inhibited”. For the compound Ac-FEWTPGWYQJY-NH2 [AF11567], in data set [7], the plasma half-life was 2.3 to 2.6 h. With Ac-FEWTPGWYQJYALPL-NH2 [AF12198], the metabolism result in [7] (iv) is recorded as “rapid metabolism”. Besides, at Type I IL-1R [8], the half-maximal inhibitory concentration (IC50) was 0.5 to 2 nM. Regarding “BMP-4: bone morphogenetic protein, member of the TGF-β superfamily”, on BMP-4 receptors, the Kd was 0.11 nM. “IL-1Ra: naturally occurring secreted, soluble ligand that binds to IL-1 receptors; 22 kD protein”: the “molar excess required to inhibit IL-1 biological responses” value in the data set with Type I IL-1R [9] is listed as 10–100 fold.

As for calphostin C, the half-maximal inhibitory concentration (IC50) in the data set on PKC was 50000 nM.

(Values after patent publication US7067144B2, “Compositions and methods for systemic inhibition of cartilage degradation” (Omeros Corporation, priority 1998, dated 2006).)
